Reference: patent US7285536B2, “Anti-cancer therapeutic compounds” (Yeda Research and Development Co., Ltd., priority 2001, dated 2007)

Tested on: 3LL lewis lung carcinoma, variant D122
Assay: 3LL Lewis lung carcinoma (D122) experimental lung metastasis in mice: survival and lung weight
Type: in vivo, C57BL/6 mice
Procedure: C57BL/6, 12 months old male mice were obtained from the Jackson Laboratory.
Syngeneic, 3LL lewis lung carcinoma, variant D122, was obtained from the Weizmann Institute of Science. This tumor line develops metastases in the lungs after intravenous (iv) inoculation.
Cells were cultured in DMEM medium containing high glucose and supplemented with 10% FCS, glutamine and penicillin.
Cells were incubated 24 hr before inoculation into the mice with the different disaccharides (300 ng/ml) in culture medium. Then, the cells were washed and injected i. v., (500,000 cells per mouse) in 100 μl PBS containing 30 ng of the corresponding disaccharide.
The number of dead mice was counted each day after the inoculation was performed. The mice were sacrificed at day 50 and the weights of their lung were determined.
Each group, injected by one of the disaccharides, contained 16 mice. Control mice received PBS alone. The different disaccharides, were injected to the mice subcutaneously (30 ng per mouse in 0.1 ml of PBS), one day before and one and two days after cell inoculation.

[1] = day 49 after 3LL injection, 16 mice per group, DS 30 ng per mouse s.c. one day before and one and two days after inoculation

## CC1(C)OC(COS(=O)(=O)O)[C@@](C)(COC[C@@]2(C)OC(C(=O)O)=CC(O)C2OS(=O)(=O)O)C(O)C1N (stereo partly drawn) [DS 8892, α-ΔUA-2S-[1→4]-GlcN-6S]
Mus musculus, Lewis lung carcinoma, sc, 1176 h, day 49 after 3LL injection, [live mice/total mice] × 100, PBS control 6.2
  responders at 30 ng: 25%
Mus musculus, Lewis lung carcinoma, sc, 1200 h, day 50 after 3LL injection, [1-(weights of treated group/weights of control group)] × 100, read-out: Decrease (%) of lung weight
  inhibition in vivo at 30 ng: 28.8%
[1]
  dead mice: 12
  live mice: 4
Day 50 after 3LL injection, PBS 0.92
  Weights of lungs ± SD: 0.66 ± 0.18 gr.
Mice inoculated i.v. with 3LL cells, treated with DS
  anti-tumor treatment / inhibition of tumor development (in words): did not inhibit the tumor development at all
